From US11185100B2 (priority 2014, dated 2021) come the findings set out here.

Where “and” joins values, the source holds several entries; their conditions need not be identical. Equal values may be shown once. Where a name gives a salt, the structure may show the parent alone. Bounds are passed on as bounds.

In series [1] the target is T1, cat T1R1/T1R3 receptor (Felis catus, UniProt E3UMS2). The experiment in a line: Activation of cat T1R1/T1R3 receptor by nucleotide derivatives alone, with alanine and/or IMP; HEK293 cells, intracellular calcium fluorescence (Example 1). The class given is cell-based. The source says:
[…] Activation of the T1R1/T1R3 receptor was detected by a change in intracellular calcium levels using a calcium sensitive fluorescent dye. Cells that express T1R3 but not T1R1 were used as a control. A FLIPR® Tetra or a FlexStation® 3 was used for data capture.
The term half maximal effective concentration (EC50) refers to the concentration of a compound which induces a response halfway between the baseline and the maximum after a specified exposure time. In each experiment, serial dilutions of up to 0.1 mM, 1 mM or 10 mM of the nucleotide derivative were added to the T1R1/T1R3-expressing cells.
Background: Calcium flux is commonly read through the fluorescence of an indicator in the cells.

For series [2], the target named is T2, T1R1/T1R3 receptor (Felis catus, UniProt E3UMS2). As to the kind of experiment: PAM screening of transmembrane compounds with GMP and Ala on T1R1/T1R3 in HEK293 cells (Example 8). The following applies: in the presence of GMP and Alanine. The class given is cell-based, cat. The text has this:
PAM Screening Method: HEK293 cells that stably express T1R3 and inducibly express T1R1 were exposed to transmembrane compound alone or in combination with Ala and GMP to activate the umami receptor. Activation of the T1R1/T1R3 receptor was detected by a change in intracellular calcium levels using a calcium sensitive fluorescent dye and/or a luminescent reporter system. […] A FLIPR® Tetra or a FlexStation® 3 was used for data capture.
Dose response curves were generated for each transmembrane compound at concentrations of 0 (buffer only), 0.01, 0.1 and 1 mM, wherein each of the three concentrations of transmembrane compound was tested in combination with 0.03 mM GMP+100 mM Ala (T1); 0.6 mM GMP+10 mM Ala (T2); 0.1 mM GMP+60 mM Ala (T3) and 0.3 mM GMP+60 mM Ala (T4). The T4 mixture was also tested in a 2-fold dilution series (the T4(X) Concentration). In these experiments, the first test concentration was 2× (2 times) the T4 concentration. The subsequent test concentrations were 2-fold dilutions from that (1×, 0.5× etc.). This dilution series was tested with or without the addition of the test compound at a constant 0.3 mM concentration.
Activation of the umami receptor was also determined in the presence of 1 mM GMP+100 mM Ala to generate a “maximum” umami receptor activation level.

For series [3], the target named is T2, T1R1/T1R3 receptor. As to the kind of experiment: Agonist screening of transmembrane compounds on T1R1/T1R3 in HEK293 cells (Example 8). The class given is cell-based, cat. The following applies: compound alone. As for the experimental part:
Agonist Screening Method: HEK293 cells that stably express T1R3 and inducibly express T1R1 were exposed to a transmembrane compound. Activation of the T1R1/T1R3 receptor was detected by a change in intracellular calcium levels using a calcium sensitive fluorescent dye and/or a luminescent reporter system. […] A FLIPR® Tetra or a FlexStation® 3 was used for data capture.
Each transmembrane compound was tested at concentrations of 0.01 mM, 0.1 mM, and 1 mM. […] To generate the dose response curves, the transmembrane compound was tested at concentrations of between 0.0001 mM and 1.0 mM in the presence of GMP and Ala.

Series [4] deals with T2, T1R1/T1R3 receptor. The experiment in a line: Activation of T1R1/T1R3 receptor by transmembrane compounds alone or with alanine, IMP, GMP, phenylalanine; HEK293 cells, calcium fluorescence (Example 5). The class given is cell-based, cat. A digest of the protocol:
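HEK293 cells stably expressing feline T1R3 with inducible T1R1 treated with serial dilutions (up to 10 mM) of transmembrane compounds, alone or combined with amino acids and/or nucleotides. Activation read as intracellular calcium change via calcium-sensitive fluorescent dye; T1R3-only cells served as control.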

Series [5] concerns the target T2, T1R1/T1R3 receptor. The experiment in a line: Activation of T1R1/T1R3 receptor by transmembrane compounds and nucleotide derivatives, conducted as in Examples 1, 2 and 5 (Example 7). The class given is cell-based, cat. A digest of the protocol:
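HEK293 cells stably expressing feline T1R3 with inducible T1R1 were given serial dilutions of transmembrane compound up to 10 mM, alone or with amino acids and/or nucleotides. Activation was read as an intracellular calcium change by fluorescent dye on FLIPR Tetra or FlexStation 3. T1R3-only cells served as control.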

For series [6], the target named is T1, cat T1R1/T1R3 receptor. The experiment in a line: cell-based. The format is cell-based. Put shortly:
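Umami receptor activation in HEK293 cells stably expressing T1R3 with inducible T1R1, exposed to nucleotide derivatives alone or combined with amino acids and/or nucleotides. Intracellular calcium read with a calcium-sensitive fluorescent dye and/or luminescent reporter; cells expressing T1R3 without T1R1 served as control.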

Where [7] appears, read: EC50- with IMP (mM), with 0.2 mM IMP.
The mark [8] stands for this setting: compound alone in buffer, read-out: EC50- alone.
[9] abbreviates: with 20 mM alanine, read-out: EC50- with Ala.

In general, EC50 refers to the concentration at which the effect is half-maximal. With `Nc1ncnc2c1ncn2C1OC(COP(=O)(O)O)C(OP(=O)(O)O)C1O` (centres unmarked) [listing 1 of 2 here], the 50% effective concentration (EC50) on cat T1R1/T1R3 receptor [1] (setting [7]), at cat T1R1/T1R3 receptor [1] (setting [8]) and on cat T1R1/T1R3 receptor [1] (setting [9]) was greater than 0.01 mM throughout.

As for `Nc1ncnc2c1ncn2C1OC(COP(=O)(O)O)C(OP(=O)(O)O)C1O` (centres unmarked) [listing 2 of 2 here], the EC50 is greater than 0.03 mM at cat T1R1/T1R3 receptor [1] (setting [8]) and 0.003 ± 0.0003 mM at cat T1R1/T1R3 receptor [1] (setting [9]).

`Cl.N[C@@H](Cc1ccccc1)C(=O)OCc1ccccc1` [L-Phenylalanine benzyl ester hydrochloride]: on T1R1/T1R3 receptor [2], the “PAM profile assessment (activation of T1R1/T1R3 in the presence of GMP and Alanine)” value (shortened to “PAM profile assessment”) is reported as “PAM activity”. Moreover, the “agonist profile assessment (activation of T1R1/T1R3 by the compound alone)” value (from here on “agonist profile assessment”) at T1R1/T1R3 receptor [3] was “agonist”.

`COC(=O)C(NCc1ccccc1)c1ccccc1` (centres unmarked) [Methyl-2-benzylamino-2-phenylacetate]: the “PAM profile assessment” value on T1R1/T1R3 receptor [2] was “PAM activity”. For the same compound, on T1R1/T1R3 receptor [3], the “agonist profile assessment” value is on record as “agonist”.

For `CCCC(CCC)NC(=O)c1ccc2c(c1)OCO2` [N-(heptan-4-yl)benzo[d][1,3]dioxole-5-carboxamide], the “PAM profile assessment” value at T1R1/T1R3 receptor [2] is recorded as “PAM activity”. For the same compound, at T1R1/T1R3 receptor [4] (+Alanine (20 mM)), the “+Alanine (20 mM) Max resp % of IMP” value is 142.7 % of IMP and 118.2 % of IMP; the “+Alanine (20 mM) Max resp ΔF/F” value is 1.7725 ΔF/F and 1.2 ΔF/F. For the same compound, at T1R1/T1R3 receptor [4] (+Alanine (20 mM), relative to IMP), the “Max resp % of IMP +Alanine (20 mM)” value is 118.2% and 142.7%. Also, on T1R1/T1R3 receptor [4] (+IMP (0.2 mM)), the “+IMP (0.2 mM) Max resp % of Ala” value was 119.6 % of Ala and 165.8 % of Ala; the “+IMP (0.2 mM) Max resp ΔF/F” value is 1.4725 ΔF/F; the “Max resp ΔF/F +IMP (0.2 mM)” value was 1.393 ΔF/F and 1.473 ΔF/F. Further, the “Max resp % of Ala +IMP (0.2 mM)” value at T1R1/T1R3 receptor [4] (+IMP (0.2 mM), relative to Ala) is 165.8% and 119.6%. The result on T1R1/T1R3 receptor [4] (Table 18, all transmembrane compounds tested, active / N/A (not active)) was active. The “ΔF/F0 of ternary mixture with phenylalanine and GMP compared to phenylalanine and GMP without the agonist” value at T1R1/T1R3 receptor [4] (with phenylalanine and GMP) is on record as “approximately 10 ×”. Besides, on T1R1/T1R3 receptor [3], the “agonist profile assessment” value was “agonist”.

With `COC(=O)[C@@H](Cc1ccccc1)NCc1ccccc1.Cl` [N-Benzyl-D-Phenylalanine methyl ester hydrochloride], on T1R1/T1R3 receptor [2], the “PAM profile assessment” value is “PAM activity”. The “agonist profile assessment” value at T1R1/T1R3 receptor [3] is “agonist”.

Turning to `COC(=O)[C@H](Cc1ccccc1)NCc1ccccc1` [N-Benzyl-L-phenylalanine methyl ester], the “PAM profile assessment” value at T1R1/T1R3 receptor [2] is reported as “PAM activity”. Moreover, the “agonist profile assessment” value on T1R1/T1R3 receptor [3] was “agonist”. Besides, on T1R1/T1R3 receptor [5], the “Max resp ΔF/F +Alanine (20 mM)” value was 1.8725 ΔF/F and the “Thres +Alanine (20 mM)” value is 0.01 mM. Also, on T1R1/T1R3 receptor [5] (+IMP (0.2 mM)), the “Max resp % of Ala +IMP (0.2 mM)” value is given as 289.4 % of Ala, the “Max resp ΔF/F +IMP (0.2 mM)” value is 2.2500 ΔF/F and the “Thres +IMP (0.2 mM)” value is recorded as 0.003 mM. At T1R1/T1R3 receptor [5] (hek293 cells), the “Max resp % of IMP +Alanine (20 mM)” value is on record as 273.4 % of IMP. The outcome on T1R1/T1R3 receptor [5] (modulation of T1R1/T1R3) was active.

In the case of `C[C@H](N)C(=O)O` [alanine, reference compound], the EC50 on cat T1R1/T1R3 receptor [1] (setting [8]) was determined as 13.6 mM.

`O=c1nc[nH]c2c1ncn2C1O[C@H](COP(=O)(O)OP(=O)(O)OP(=O)(O)O)[C@@H](O)[C@H]1O` (some centres unmarked) [inosine triphosphate (ITP) trisodium salt]: the outcome on cat T1R1/T1R3 receptor [6] was active. Moreover, on cat T1R1/T1R3 receptor [6] (hek293 cells), the “Max. resp. % of IMP” value is on record as 25.1 % of IMP. Also, the concentration giving a half-maximal response (EC50) on cat T1R1/T1R3 receptor [6] (in the presence of 20 mM alanine, read-out: EC50- with Ala) was determined as 80 µM; at cat T1R1/T1R3 receptor [1] (EC50- with Ala and IMP (mM), with 20 mM alanine and 0.2 mM IMP), 0.03 ± 0.01 mM; at cat T1R1/T1R3 receptor [1] (setting [7]) it was 0.02 ± 0.03 mM; at cat T1R1/T1R3 receptor [1] (setting [8]), 0.05 ± 0.03 mM.
